According to patent publication US5041567A, “Antibacterial monic acid derivatives” (Beecham Group plc, priority 1982, dated 1991):
In brackets after ≈: the same amount, converted by molar mass. Like-named read-outs stand apart in the source and are kept apart here.

Legend:
[1] = tested on: M. bovis NCTC 10131; assay: microbe, parasite or virus in culture; format: cell-based; conditions: NCTC10131, 144 h
[2] = tested on: M. suipneumoniae UCD 1; assay: MIC against mycoplasma in vitro; format: cell-based; conditions: Mesomycoplasma hyopneumoniae, UCD1, 144 h
[3] = tested on: Strep. dysgalactiae SPD1; assay: MIC against veterinary bacteria in vitro; conditions: Streptococcus dysgalactiae, SPD1, 18 h
Experimental: (§1) The activity of the compounds of the Examples against various veterinarily important bacteria, was assayed in vitro using two-fold serial dilutions in Diagnostic Sensitivity Test Agar inoculated with 10^4 organisms.

[4] = tested on: M. hyorhinis ATCC 23234; assay: MIC against mycoplasma in vitro; format: cell-based; conditions: Mesomycoplasma hyorhinis, ATCC23234, 144 h
[5] = tested on: M. suipneumoniae HK(2); assay: MIC against mycoplasma in vitro; format: cell-based; conditions: Mesomycoplasma hyopneumoniae, 144 h
[6] = tested on: B. subtilis ATCC 6633; assay: MIC against veterinary bacteria in vitro; conditions: Bacillus subtilis, ATCC6633, 18 h
Experimental: as §1

[7] = tested on: Staph. aureus 152 (pen. sens); assay: MIC against veterinary bacteria in vitro; conditions: Staphylococcus aureus, 18 h
Experimental: as §1

[8] = tested on: E. coli NCTC 10418; assay: MIC against veterinary bacteria in vitro; conditions: Escherichia coli, NCTC10418, 18 h
Experimental: as §1

[9] = tested on: Erysipelothrix rhusiopathiae NCTC 8163; assay: MIC against veterinary bacteria in vitro; conditions: Erysipelothrix rhusiopathiae, NCTC8163, 18 h
Experimental: as §1

[10] = tested on: M. suipneumoniae LABER; assay: MIC against mycoplasma in vitro; format: cell-based; conditions: Mesomycoplasma hyopneumoniae, 144 h
[11] = tested on: E. coli NCTC 10418; assay: MIC against human bacteria in vitro; format: cell-based; conditions: Escherichia coli, NCTC10418; E. coli NCTC 10418; agar with 5% chocolated horse blood, 18 hours, 37° C.; read-out: MIC
[12] = tested on: S. typhimurium S18; assay: MIC against veterinary bacteria in vitro; conditions: Salmonella enterica, TYPHIMURIUM, 18 h
Experimental: as §1

[13] = tested on: M. suipneumoniae PW/C/210; assay: MIC against mycoplasma in vitro; format: cell-based; conditions: Mesomycoplasma hyopneumoniae, 144 h
[14] = tested on: M. pneumoniae ATCC 15492; assay: MIC against mycoplasma in vitro; format: cell-based; conditions: Mycoplasmoides pneumoniae, ATCC15492, 144 h
[15] = tested on: M. suipneumoniae NCTC 10110; assay: MIC against mycoplasma in vitro; format: cell-based; conditions: Mesomycoplasma hyopneumoniae, NCTC10110, 144 h
[16] = tested on: Staph. aureus Oxford; assay: MIC against veterinary bacteria in vitro; conditions: Staphylococcus aureus, 18 h
Experimental: as §1

[17] = tested on: M. gallisepticum S6; assay: MIC against mycoplasma in vitro; format: cell-based; conditions: Mycoplasmoides gallisepticum
[18] = tested on: Past. multocida PA2; assay: MIC against veterinary bacteria in vitro; conditions: Pasteurella multocida, PA2, 18 h
Experimental: as §1

[19] = tested on: Bord. bronchiseptica B09; assay: MIC against veterinary bacteria in vitro; conditions: Bordetella bronchiseptica, B09, 18 h
Experimental: as §1

[20] = tested on: Past. haemolytica PA5; assay: MIC against veterinary bacteria in vitro; conditions: Mannheimia haemolytica, PA5, 18 h
Experimental: as §1

[21] = tested on: E. coli E1; assay: MIC against veterinary bacteria in vitro; conditions: Escherichia coli, E1, 18 h
Experimental: as §1

[22] = tested on: Bord. bronchiseptica B08; assay: MIC against veterinary bacteria in vitro; conditions: Bordetella bronchiseptica, B08, 18 h
Experimental: as §1

[23] = M. hyorhinis ATCC 23234, 6 days, 37° C., read-out: MIC
[24] = M. suipneumoniae LABER, 6 days, 37° C., read-out: MIC
[25] = M. suipneumoniae PW/C/210, 6 days, 37° C., read-out: MIC
[26] = M. pneumoniae ATCC 15492, 6 days, 37° C., read-out: MIC
[27] = 144 h, M. gallisepticum S6, 6 days, 37° C., read-out: MIC
[28] = M. suipneumoniae HK(2), 6 days, 37° C., read-out: MIC
[29] = M. suipneumoniae NCTC 10110, 6 days, 37° C., read-out: MIC

Compound	MIC [1] [µg/mL]	MIC [2] [µg/mL]	MIC [3] [µg/mL]	MIC [4, 23] [µg/mL]	MIC [5] [µg/mL]	MIC [6] [µg/mL]	MIC [7] [µg/mL]	MIC [8] [µg/mL]	MIC [9] [µg/mL]	MIC [10, 24] [µg/mL]	MIC [11] [µg/mL]	MIC [12] [µg/mL]	MIC [13, 25] [µg/mL]	MIC [14, 26] [µg/mL]	MIC [16] [µg/mL]	MIC [18] [µg/mL]	MIC [19] [µg/mL]	MIC [20] [µg/mL]	MIC [21] [µg/mL]	MIC [22] [µg/mL]	also measured
C/C(=C\c1ncc(-c2ccsc2)o1)C[C@@H]1OC[C@H](C[C@@H]2O[C@H]2[C@@H](C)[C@H](C)O)[C@@H](O)[C@H]1O [Example 20, 5-(3-Thienyl)-2-(1-normon-2-yl) oxazole A]	≤ 0.01	1 (≈ 2.22 µM)	0.625 (≈ 1.39 µM)	0.5 (≈ 1.11 µM)	1 (≈ 2.22 µM)	10 (≈ 22.2 µM)	0.63 (≈ 1.4 µM)	> 80	80 (≈ 178 µM)	0.5 (≈ 1.11 µM)	> 128	> 80	0.5 (≈ 1.11 µM)	0.5 (≈ 1.11 µM)	2.55 (≈ 5.67 µM)	0.312 (≈ 0.694 µM)	10 (≈ 22.2 µM)	80 (≈ 178 µM)	> 80	80 (≈ 178 µM)	MIC [15]: 1 µg/mL (≈ 2.22 µM); MIC ([17]; S6, 144 h): 2.5 µg/mL (≈ 5.56 µM)
C/C(=C\c1ncc(-c2ccc(S(=O)(=O)N(C)C)cc2)o1)C[C@@H]1OC[C@H](C[C@@H]2O[C@H]2[C@@H](C)[C@H](C)O)[C@@H](O)[C@H]1O [Example 24, 5-p-Dimethylaminosulphonylphenyl-2-(1-normon-2-yl)oxazole A]	0.025 (≈ 0.0454 µM)	0.25 (≈ 0.454 µM)	0.625 (≈ 1.13 µM)	–	0.25 (≈ 0.454 µM)	0.312 (≈ 0.567 µM)	0.625 (≈ 1.13 µM)	> 80	40 (≈ 72.6 µM)	–	> 64	> 80	0.1 (≈ 0.182 µM)	0.5 (≈ 0.908 µM)	1.25 (≈ 2.27 µM)	2.5 (≈ 4.54 µM)	40 (≈ 72.6 µM)	40 (≈ 72.6 µM)	> 80	80 (≈ 145 µM)	MIC [4]: 0.1 µg/mL (≈ 0.182 µM); MIC [15]: 0.25 µg/mL (≈ 0.454 µM); MIC [17, 27]: 0.5 µg/mL (≈ 0.908 µM)
C/C(=C\c1ncc(-c2ccc(C#N)cc2)o1)C[C@@H]1OC[C@H](C[C@@H]2O[C@H]2[C@@H](C)[C@H](C)O)[C@@H](O)[C@H]1O [Example 21, 5-p-Cyanophenyl-2-(1-normon-2-yl) oxazole A]	0.025 (≈ 0.0534 µM)	0.25 (≈ 0.534 µM)	0.625 (≈ 1.33 µM)	–	–	2.5 (≈ 5.34 µM)	0.625 (≈ 1.33 µM)	> 80	40 (≈ 85.4 µM)	–	> 128	> 80	–	–	2.5 (≈ 5.34 µM)	0.625 (≈ 1.33 µM)	10 (≈ 21.3 µM)	20 (≈ 42.7 µM)	> 80	40 (≈ 85.4 µM)	MIC [4]: 0.25 µg/mL (≈ 0.534 µM); MIC [5, 28]: 0.5 µg/mL (≈ 1.07 µM); MIC [10]: 0.25 µg/mL (≈ 0.534 µM); MIC [13]: 0.25 µg/mL (≈ 0.534 µM); MIC [14]: 0.25 µg/mL (≈ 0.534 µM); MIC [15, 29]: 0.5 µg/mL (≈ 1.07 µM); MIC ([17]; S6, 144 h): 0.25 µg/mL (≈ 0.534 µM)
C/C(=C\c1ncc(Cc2ccccc2)o1)C[C@@H]1OC[C@H](C[C@@H]2O[C@H]2[C@@H](C)[C@H](C)O)[C@@H](O)[C@H]1O [Example 27, 5-Benzyl-2-(1-normon-2-yl)oxazole A]	0.05 (≈ 0.109 µM)	–	2.5 (≈ 5.46 µM)	10 (≈ 21.9 µM)	–	2.5 (≈ 5.46 µM)	10 (≈ 21.9 µM)	> 80	> 80	5 (≈ 10.9 µM)	> 64	> 80	5 (≈ 10.9 µM)	10 (≈ 21.9 µM)	10 (≈ 21.9 µM)	5 (≈ 10.9 µM)	80 (≈ 175 µM)	–	> 80	> 80	MIC ([2]; M. suipneumoniae UCD 1, 6 days, 37° C., read-out: MIC): 10 µg/mL (≈ 21.9 µM); MIC [5, 28]: 10 µg/mL (≈ 21.9 µM); MIC [15, 29]: 10 µg/mL (≈ 21.9 µM); MIC [17, 27]: > 10 µg/mL
